The values below come from PMC8217813, “Bridging Computational Vaccinology and Vaccine Development Through Systematic Identification, Characterization, and Downselection of Conserved and Variable Circumsporozoite Protein CD4 T Cell Epitopes From Diverse Plasmodium falciparum Strains” (Frontiers in Immunology, 2021).

The test concerns the target T1, HLA A*0101 (Homo sapiens, UniProt P04439, A114D/A174V/A182V/D101N/D185E/E176A/E190D/L180R/Q94H/R68K/S129P/T187R/V100A/V91M/W191G).
T1 construct: Pure Protein, LLC (ran the assay)
Description: biochemical. The class given is binding.

The mark [1] stands for this setting: allele A0101, cell-free competition with fluorescently labeled control peptide, fluorescence polarization at 72 hours, read-out: IC50.

The structures appear in SMILES notation. pIC50: −log10 of the molar value. Like-named read-outs stand apart in the source and are kept apart here. Peptide text beside a SMILES is read from it.

As for `CC[C@H](C)[C@H](NC(=O)[C@H](Cc1c[nH]cn1)NC(=O)[C@H](CCCCN)NC(=O)[C@H](CC(=O)O)NC(=O)[C@H](CO)NC(=O)[C@@H]1CCCN1)C(=O)N[C@@H](CCCCN)C(=O)N[C@@H](CCC(=O)O)C(=O)N[C@@H](Cc1ccc(O)cc1)C(=O)O` [CL1-62] (H-PSDKHIKEY-OH), the pIC50 (usually the IC50 on a negative log10 scale, so that one unit is a factor of ten) under setting [1] was 4.60. Same read-out and setting: to `CC(C)[C@H](NC(=O)[C@@H](N)CC(N)=O)C(=O)N[C@@H](CC(=O)O)C(=O)N[C@@H](CCC(=O)O)C(=O)N[C@@H](CC(N)=O)C(=O)N[C@@H](C)C(=O)N[C@@H](CC(N)=O)C(=O)N[C@@H](C)C(=O)N[C@@H](CC(N)=O)C(=O)N[C@@H](CC(N)=O)C(=O)O` [Cluster 292_CVX337] (H-NVDENANANN-OH) belongs 3.18.

With `CC[C@H](C)[C@H](NC(=O)[C@H](Cc1c[nH]cn1)NC(=O)[C@H](CCCCN)NC(=O)[C@H](CC(=O)O)NC(=O)[C@H](CO)NC(=O)[C@@H]1CCCN1)C(=O)N[C@H](C(=O)N[C@@H](CCC(=O)O)C(=O)N[C@@H](Cc1ccc(O)cc1)C(=O)O)[C@@H](C)O` [Cluster 311_ICS2] (H-PSDKHITEY-OH), the pIC50 was 5.57. For the compound `CC[C@H](C)[C@H](NC(=O)[C@H](Cc1c[nH]cn1)NC(=O)[C@H](CCCCN)NC(=O)[C@H](CC(=O)O)NC(=O)[C@H](CO)NC(=O)[C@@H]1CCCN1)C(=O)N[C@@H](CCC(=O)O)C(=O)N[C@@H](CCC(N)=O)C(=O)N[C@@H](Cc1ccc(O)cc1)C(=O)O` [Cluster 311_ICS7] (H-PSDKHIEQY-OH), the pIC50 was 5.70.
